What was measured:
[1] = tested on: E. coli K12; test: Effect of GM-CSF on planktonic E. coli K12 cells (total viable cells and persisters) at exponential phase, alone and with antibiotic; format: cell-based, Escherichia coli; details: for % change in avg. CFU/mL by GM-CSF (compared to GM-CSF free control) 20 μg/mL Tet / % change in avg. CFU/mL by GM-CSF (compared to GM-CSF free control) With 2 μg/mL Cip / % change in avg. CFU/mL by GM-CSF (compared to GM-CSF free control) With 70 μg/mL Tob / % change in avg. CFU/mL by GM-CSF (compared to GM-CSF free control) With 200 μg/mL Gen: E. coli K12 exponential phase, 0.17 pM GM-CSF; for % change in avg. CFU/ml after adding factor + CIP / % change in avg. CFU/ml after adding factor + TET / % change in avg. CFU/ml after adding factor + TOB / % change in avg. CFU/ml after adding factor + GEN: planktonic E. coli K12; for % change in avg. CFU/ml after adding factor + CIP: 2.43 pg/mL GM-CSF with 2 μg/mL ciprofloxacin; for % change in avg. CFU/ml after adding factor + TET: 2.43 pg/mL GM-CSF with 20 μg/mL tetracycline; for % change in avg. CFU/ml after adding factor + TOB: 2.43 pg/mL GM-CSF with 70 μg/mL tobramycin; for % change in avg. CFU/ml after adding factor + GEN: 2.43 pg/mL GM-CSF with 200 μg/mL gentamicin
Procedure: This Example describes the treatment of planktonic P. aeruginosa PAO1, PDO300 and Escherichia coli K12, with GM-CSF introduced directly or together with an antibiotic to test the synergy. All experiments were conducted with cells harvested from exponential phase subcultures with an optical density at 600 nm (OD600) of 0.3 to 0.4.
In brief, after preparing an overnight culture of the tested strain in 25 ml LB medium, a subculture was prepared with an OD600 of 0.01 in 50 mL LB medium. The subculture was incubated at 37° C. with shaking at 200 rpm for 3-4 h, till an OD600 of 0.3 to 0.4 was reached. The exponential phase subculture was then divided equally into two centrifuge tubes, each containing 25 mL of the subculture. The subcultures were washed twice with 0.85% NaCl buffer by vortexing and then centrifuging at 4° C., 8000 rpm for 10 min each time. The washed subcultures/cells were resuspended in 25 mL 0.85% NaCl buffer and vortexed gently for 1 min. One of the tubes of subculture was selected for isolation of persisters by adding 200 μg/mL ciprofloxacin (for PAO1 and PDO300 strains) or 100 μg/mL ampicillin (for E. coli K12 strain). After adding the antibiotic for persister isolation, the subculture was incubated at 37° C., shaking at 200 rpm for 3.5 h.
To test the effects of GM-CSF on viability of persisters, the second tube was used to quantify the total number of viable cells and 1 mL of the washed persister cells was divided into 6 microcentrifuge tubes; 3 were control and the other 3 were GM-CSF treatment samples. In the treatment samples, GM-CSF was added to a concentration of 2.43 pg/mL (or 0.17 pM), the same as found in healthy human bodies. The control samples were supplemented with the same concentration of PBS and BSA as present in 2.43 pg/mL (or 0.17 pM) GM-CSF samples.
After incubating at 37° C. for 1 h with shaking at 200 rpm, the samples were plated on LB agar plates (15 g/L bacto agar) using drop plate method. The agar plates were then incubated for 24 h at 37° C. to count the total number of persister cells and understand the effect of 0.17 pM GM-CSF on the viability of persister cells.
To test the synergy with antibiotics, the above samples were then incubated at 37° C. for 3.5 h with shaking at 200 rpm after adding the selected antibiotic. After 3.5 h, the CFU of samples was quantified in the same way to understand if there is any synergy between GM-CSF and antibiotic. Similar treatments were performed on the total population in exponential phase as well. Apart from exponential phase, the synergistic effects of GM-CSF with antibiotics on total viable cells and persisters were also evaluated at stationary phase but PBS buffer (pH=7.4) was used in the experiments instead of 0.85% NaCl solution. Moreover, the 1 h and 3.5 h treatments were performed as co-treatments.

[2] = tested on: E. coli K12 biofilm; test: Effect of GM-CSF on 24-h E. coli K12 biofilm, alone and with antibiotic; format: cell-based, Escherichia coli
Procedure: This Example describes the treatment of biofilms made from P. aeruginosa PAO1, PDO300 and Escherichia coli K12, with GM-CSF introduced directly or together with an antibiotic to test the synergy.
In brief, after preparing an overnight culture, it was subcultured to an initial OD600 of 0.01 to a total volume of 20 mL M63 medium (for PAO1 and PDO300) or 20 ml LB medium (for E. coli K12) in a petri dish with 316L stainless steel coupons (1.75 cm×1 cm). The biofilm was grown for 24 h at 37° C. without shaking. After incubation, the coupons were washed by gently dipping in 0.85% NaCl twice using tweezers and were placed in new empty petri dishes.
To test the synergistic effects between GM-CSF (2.43 pg/mL or 0.17 pM) and antibiotics, a total of 8 coupons were analyzed. These 8 coupons were placed in 4 petri dishes (2 coupons in each dish). The two dishes were labeled as control and the other two as treatment samples. In the treatment samples, GM-CSF was added to 20 mL of 0.85% NaCl to a concentration of 2.43 pg/mL (or 0.17 pM). The control samples were supplemented with the same amount of PBS and BSA as present in the samples with 2.43 pg/ml (or 0.17 pM) GM-CSF. The coupons were incubated at 37° C. for 2 h.
After incubation, a control dish and a treatment dish was selected for studying the killing effect of 2.43 pg/ml GM-CSF on biofilm cells. Each coupon after gentle washing with 0.85% NaCl buffer, was placed in a test tube with 3 mL 0.85% NaCl buffer in each. They were sonicated (B200, Sinosonic Industrial Co., Ltd., Taiwan) for 4 mins to release the biofilm cells in the buffer. After vortexing for 1 min, they were plated on LB agar plates using drop plate method. The CFU was counted after incubation at 37° C. for 24 h to count the total number of viable cells. Furthermore, the synergistic effect of antibiotics with GM-CSF was evaluated with additional 3.5 h treatment with antibiotic at 37° C. After incubation, drop plate method was performed and the CFU was counted to understand if there is a synergistic effect.

[3] = total viable cells, listed as factor

## GM-CSF: granulocyte macrophage-colony stimulating factor, a cytokine secreted by macrophages; recombinant human GM-CSF (R&D systems) in binding tests
[1]; compared to the pathogenic strain P. aeruginosa
  effect on E. coli persister cells: ineffective
[1]; persisters
  % change in avg. CFU/mL by GM-CSF (compared to GM-CSF free control) 20 μg/mL Tet: −6.7%
  % change in avg. CFU/mL by GM-CSF (compared to GM-CSF free control) With 2 μg/mL Cip: −4.8%
  % change in avg. CFU/mL by GM-CSF (compared to GM-CSF free control) With 70 μg/mL Tob: +1.5%
  % change in avg. CFU/mL by GM-CSF (compared to GM-CSF free control) With 200 μg/mL Gen: +11.1%
  % change in avg. CFU/ml after adding factor + CIP: −6.18%
  % change in avg. CFU/ml after adding factor + TET: +12.00%
  % change in avg. CFU/ml after adding factor + TOB: +11.16%
  % change in avg. CFU/ml after adding factor + GEN: +18.52%
[1]; persisters, listed as factor
  % change in avg. CFU/ml after adding factor + CIP: −6.18%
  % change in avg. CFU/ml after adding factor + TET: +12.00%
  % change in avg. CFU/ml after adding factor + TOB: +11.16%
  % change in avg. CFU/ml after adding factor + GEN: +18.52%
[1]; total viable cells
  % change in avg. CFU/mL by GM-CSF (compared to GM-CSF free control) 20 μg/mL Tet: −19.0%
  % change in avg. CFU/mL by GM-CSF (compared to GM-CSF free control) With 2 μg/mL Cip: +5.9%
  % change in avg. CFU/mL by GM-CSF (compared to GM-CSF free control) With 70 μg/mL Tob: −32.0%
  % change in avg. CFU/mL by GM-CSF (compared to GM-CSF free control) With 200 μg/mL Gen: −31.3%
  % change in avg. CFU/ml after adding factor + CIP: +5.88%
  % change in avg. CFU/ml after adding factor + TET: −19.05%
  % change in avg. CFU/ml after adding factor + TOB: −32.00%
  % change in avg. CFU/ml after adding factor + GEN: −31.34%
[1]; [3]
  % change in avg. CFU/ml after adding factor + CIP: +5.88%
  % change in avg. CFU/ml after adding factor + TET: −19.05%
  % change in avg. CFU/ml after adding factor + TOB: −32.00%
  % change in avg. CFU/ml after adding factor + GEN: −31.34%
[2]; 24-h E. coli K12 biofilm, 2.43 pg/mL GM-CSF with 100 μg/mL ciprofloxacin
  % change in avg. CFU/ml after adding factor + CIP: +4.8%
[2]; 24-h E. coli K12 biofilm, 2.43 pg/mL GM-CSF with 100 μg/mL tetracycline
  % change in avg. CFU/ml after adding factor + TET: +3.6%
[2]; 24-h E. coli K12 biofilm, 2.43 pg/mL GM-CSF with 100 μg/mL tobramycin
  % change in avg. CFU/ml after adding factor + TOB: +4.2%
[2]; 24-h E. coli K12 biofilm, 2.43 pg/mL GM-CSF with 125 μg/mL gentamicin
  % change in avg. CFU/ml after adding factor + GEN: +8.1%
[2]; E. coli K12 biofilm, 2.43 pg/mL GM-CSF alone, average of 2 experiments
  average CFU/mL of biofilm cells changed by: +4.83%
[2]; E. coli K12 biofilm, 2.43 pg/mL GM-CSF in the presence of 100 μg/mL ciprofloxacin
  average CFU/ml of biofilm cells changed by: +1.2%
[2]; E. coli K12 biofilm, 2.43 pg/mL GM-CSF in the presence of 100 μg/mL tetracycline
  average CFU/ml of biofilm cells changed by: −2.4%
[2]; E. coli K12 biofilm, 2.43 pg/mL GM-CSF in the presence of 100 μg/mL tobramycin
  average CFU/ml of biofilm cells changed by: +0.6%
[2]; E. coli K12 biofilm, 2.43 pg/mL GM-CSF in the presence of 125 μg/mL gentamicin
  average CFU/ml of biofilm cells changed by: +1.9%
